System: HFF normal cells (Human foreskin fibroblasts)
Method: Toxicity studies were carried out to evaluate any toxic effect of developed nanoformulations. Cells were treated for 48 h with the following conditions for Zinc-containing nanocomposites: ZnFe2O4/Halloysite, Halloysite, Dexamethasone (Dex), ZnFe2O4/Halloysite/Dex, ZnFe2O4/Halloysite/Dex/PEG, and PEG. Similar protocol was used for nickel-containing nanocomposites. Treatment concentrations were as follows: 0.0375, 0.075, 0.15, and 0.3 mg/mL. In addition, cells were treated with Dex at concentrations to reflect that loaded in the nanocomposite as follows: 0.00181, 0.00362, 0.00725, and 0.01449 mg/mL. […] To choose the optimal dose, cells were exposed to specific doses at different time points. Cells were treated with dose 2 (0.075 mg/mL, see FIG. 9A), dose 3 (0.15 mg/mL, see FIG. 9B), or dose 4 (0.3 mg/mL, see FIG. 9C) for 24, 48, and 72 h.

`C[C@@H]1C[C@H]2[C@@H]3CCC4=CC(=O)C=C[C@]4(C)[C@@]3(F)[C@@H](O)C[C@]2(C)[C@@]1(O)C(=O)CO` [Dexamethasone, dexamethasone] was tested, and the toxicity to cells was “induce toxicity” and the “dexamethasone dose found to be less toxic / usable dose” value (human, 48 h) was “up to 0.00362 mg/mL”.
